The values that follow come from PMC9077138, “An investigation on 3-acetyl-7-methoxy-coumarin Schiff bases and their Ru(II) metallates with potent antiproliferative activity and enhanced LDH and NO release” (RSC Advances, 2018).

Assay [1] relates to human lung carcinoma cancer cell line A549. The assay can be described thus: MTT cytotoxicity assay. Type of assay: cell-based. The conditions noted are these: MTT, 48 h; read-out: IC50 values A549. An excerpt:
(§1) The DNA/protein binding studies, antioxidant and antimicrobial studies had shown that the ligands and ruthenium(II) complexes studied here have therapeutic potentials and were subjected to study their anticancer activity. A number of coumarin derivatives have shown considerable anticancer activity against a number of cell lines. All the 3-acetyl-7-methoxy-coumarin-4(N)-substituted thiosemicarbazone ligands, metal precursor [RuHClCO(PPh3)3] and their new cyclometallated Ru(II) complexes were assessed for their cytotoxicity with two human derived cell lines namely human lung carcinoma (A549) and human breast cancer cells (MCF-7) by using MTT assay. For comparison purpose, cisplatin was used as a positive control under identical conditions.
(§2) Cytotoxic activity of the compounds was tested with human lung cancer cell lines A549, human breast cancer cell lines MCF-7 and human normal keratinocyte cells (HaCaT) by using MTT assay, which was done according to the earlier literature methods[77] and IC50 values obtained from nonlinear regression using GraphPad Prism 5.[78] The LDH release[79] and NO release[80] assays of the compounds was evaluated by the earlier reported methods.
For orientation: Formazan colour is commonly taken as a measure of viable cells.

Assay [2] has as its system human breast cancer cell line MCF-7. The assay can be described thus: MTT cytotoxicity assay. Type of assay: cell-based. The conditions noted are these: MTT, 48 h; read-out: IC50 values MCF-7.
Source text: as §1, §2

Assay [3] concerns human normal keratinocyte cells (HaCaT). The assay can be described thus: MTT cytotoxicity assay. The format is cell-based. The note with it: MTT, 48 h, normal cells; read-out: IC50 values HaCaT. The method, then: In order to investigate the selectivity of the compounds for cancer cells rather than normal cell lines, the compounds were also screened for their anticancer activity on the human normal keratinocyte cells (HaCaT).
as §2

The subject of another assay is S. paratyphi. The assay can be described thus: In vitro antibacterial assay (zone of inhibition, MIC). The format is cell-based, Salmonella paratyphi. An excerpt:
The free ligands and their cyclometallated ruthenium(II) carbonyl complexes were screened for their in vitro antimicrobial activity against certain pathogenic bacterial and fungal species at three different concentrations using disc diffusion method. […] Tested complexes had better antimicrobial activity than the ligands against all pathogens. This may be explained by Tweedy's chelation theory.[61] Coordination of ligands reduce the polarity of the metal ion essentially by partial sharing of its positive charge with the donor groups within the chelate ring system formed during the coordination and leading to the increase in lipophilic nature of the central metal atom, which favours the effective permeation through the lipid layer of microorganism.[61,62] […] When tested against T. rubrum, the activity of the complexes in the order of 3 > 2 > 1 > 4. In antibacterial studies, the complex 3 was effective against S. aureus followed by complex 2, 1 and 4 and in the case of S. pneumonie the activity of the complexes follows the order of 3 > 1 > 4 > 2. […] When tested against S. paratyphi complex 1 stood out as good followed by the complexes 4, 3 and 2 respectively.
(§3) Antimicrobial activities of [RuHClCO(PPh3)3], ligands H2L^1–4 and new organometallic Ru(II) complexes (1–4) were evaluated by agar well diffusion method[76] as reported, by taking Staphylococcus aureus, Streptococcus pneumonie, Pseudomonas aeruginosa, Salmonella paratyphi and fungus such as Candida albicans, Trichophyton rubrum, Aspergillus niger, Aspergillus fumigatus and Candida tropicalis. The above said all test organisms were obtained from the MTCC, Chandigarh, India and Microbiological laboratory, Coimbatore, Tamil Nadu, India. The antimicrobial activity of the test compounds was checked with various concentrations (25 μg ml^−1, 50 μg ml^−1 and 100 μg ml^−1) against all the test pathogens. Gentamicin and ketoconazole were used as positive controls to study the antibacterial and antifungal activities respectively. Each experiment was performed in triplicate and the results are represented as average zone of inhibition and minimum inhibitory concentration of all the test pathogens.

In a further assay the test system is P. aeruginosa. Described as above. Type of assay: cell-based, Pseudomonas aeruginosa. The note with it: P. aeruginosa. The method, then:
(§4) The free ligands and their cyclometallated ruthenium(II) carbonyl complexes were screened for their in vitro antimicrobial activity against certain pathogenic bacterial and fungal species at three different concentrations using disc diffusion method.
as §3

The test system of the next assay is S. pneumonie. The assay is described as above. The format is cell-based, Streptococcus pneumonie. The conditions noted are these: S. pneumonie. The method, then: as §4, §3
A further assay has as its system S. aureus. Described as above. Type of assay: cell-based, Staphylococcus aureus. The note with it: S. aureus. The method, then:
as §4, §3

For a further assay, the system named is C. albicans. The assay can be described thus: In vitro antifungal assay (zone of inhibition, MIC). Type of assay: cell-based, Candida albicans. The note with it: C. albicans. The protocol:
as §4, §3

Another assay has as its system Aspergillus fumigatus. Described as above. Type of assay: cell-based. The protocol: as §4, §3
In a further assay the test system is Candida tropicalis. The description is as above. Type of assay: cell-based. The protocol:
as §4, §3

Another assay has as its system Aspergillus niger. Described as above. Type of assay: cell-based. The method, then: as §4, §3
Another assay relates to Trichophyton rubrum. The assay is described as above. Type of assay: cell-based. The method, then: as §4, §3
Assay [4] in a line: Total antioxidant capacity, phosphomolybdate method. The protocol: (§5) It has been reported that free radical species such as reactive oxygen species (ROS), are involved in the pathogenesis of various diseases through effects on DNA directly and by acting as a tumour promoter.[59,60] The DPPH free radical scavenging activity of the ligands and complexes were studied and quantitatively antioxidant properties were determined by using phosphomolybdate method. We knew that the inhibitory effects of the tested compounds on DPPH radical are concentration dependent and the suppression ratio increases with increasing sample concentrations (Fig. S36 ^†). […] In the phosphomolybdenum assay, the antioxidant activity is expressed as the number of equivalents of ascorbic acid (Table 6). The total antioxidant activity of the compounds is in the following order complex 3 > complex 2 > complex 1 > complex 4 > H2L^3 > H2L^2 > H2L^1 > H2L^4 > ascorbic acid > [RuHClCO(PPh3)3]. The results concluded that the metal complexes are better antioxidants than their parent ligands which may be due to the chelation of the ligands to metal ion.[35] The radical scavenging ability of the new complexes is greater than that of few other reported ruthenium complexes, containing Schiff base ligands.[9]
(§6) The DPPH radical scavenging activity of the compounds have been carried out according to the reported method.[74] In this study, various concentrations of the experimental standard ascorbic acid, [RuHCl(CO)(PPh3)3], ligands (20–100 μM) and complexes (2–10 μM) in methanol were taken. Total antioxidant activity of the compounds was determined by the phosphomolybdate method.[75]

Assay [5] is described as follows: DPPH radical scavenging assay. The conditions noted are these: in methanol. The method, then: as §5, §6
Background: DPPH is a stable violet radical that fades when it is reduced.

As for `N.N.[Cl][Pt][Cl]` [Cisplatin, reference compound], the results for the IC50 in assay [1], in assay [2] and in assay [3] were 15.1 ± 0.05 µM, 16.79 ± 0.08 µM and above 40 µM, respectively.

For `CNC(C)C1CCC(N)C(OC2C(N)CC(N)C(OC3OCC(C)(O)C(NC)C3O)C2O)O1` (stereo not shown) [Gentamicin, reference compound], the zone of inhibition – broadly, the size of the clear area around the sample on an inoculated plate – at 25 µg/mL was found to be 20.4 ± 0.44 mm with S. paratyphi (Salmonella enterica, 25 µg/ml); 20.2 ± 0.22 mm in the assay with P. aeruginosa (Pseudomonas aeruginosa, 25 µg/ml); 20.3 ± 0.39 mm in the assay with S. pneumonie (Streptococcus, 25 µg/ml); 20.3 ± 0.43 mm in the assay with S. aureus (Staphylococcus aureus, 25 µg/ml).

For `CC(=O)N1CCN(c2ccc(OCC3COC(Cn4ccnc4)(c4ccc(Cl)cc4Cl)O3)cc2)CC1` (stereo not shown) [Ketaconazole, reference compound], the zone of inhibition at 25 µg/mL was found to be 20.34 ± 0.2 mm in the assay on C. albicans (Candida albicans, 25 µg/ml); 23 ± 0.25 mm in the assay with Aspergillus fumigatus (25 µg/ml); 19.5 ± 0.23 mm in the assay with Candida tropicalis (25 µg/ml); 21.89 ± 0.11 mm with Aspergillus niger (25 µg/ml); 24.12 ± 0.16 mm in the assay with Trichophyton rubrum (25 µg/ml).

As for `[C-]#[O+].[Cl][RuH].c1ccc(P(c2ccccc2)c2ccccc2)cc1.c1ccc(P(c2ccccc2)c2ccccc2)cc1.c1ccc(P(c2ccccc2)c2ccccc2)cc1` [[RuHClCO(PPh3)3], reference compound], the “Minimum inhibitory concentration (MIC); head: IC50 VALUES” in the assay with C. albicans turned out to be 26.09 ± 0.48 µM; in the assay on Aspergillus fumigatus, 29.75 ± 0.54 µM; in the assay with Candida tropicalis it was 28.79 ± 0.41 µM; in the assay on Aspergillus niger, 31.63 ± 0.59 µM; with Trichophyton rubrum, 31.76 ± 0.42 µM; with P. aeruginosa it was 30.19 ± 0.53 µM. Besides, the results for the “Minimum inhibitory concentration (MIC); head: IC50 VALUES” in the assay on S. pneumonie and in the assay on S. aureus were 33.05 ± 0.28 µM and 35.84 ± 0.37 µM, respectively. The Zone of inhibition in the assay on C. albicans (50 µg/ml) turned out to be 13.29±0.45 mm; with C. albicans (100 µg/ml), 16.67±0.11 mm; in the assay on S. paratyphi (50 µg/ml) it was 13.29±0.65 mm; in the assay on S. paratyphi (100 µg/ml) it was 17.44±0.55 mm; in the assay on Aspergillus fumigatus (50 µg/ml), 15.58±0.65 mm; in the assay with Aspergillus fumigatus (100 µg/ml) it was 18.38±0.65 mm. For the same molecule, the Zone of inhibition turned out to be 14.78±0.43 mm in the assay with Candida tropicalis (50 µg/ml); 18.59±0.41 mm in the assay with Candida tropicalis (100 µg/ml); 13.19±0.34 mm in the assay on Aspergillus niger (50 µg/ml); 15.14±0.31 mm in the assay with Aspergillus niger (100 µg/ml); 14.18±0.54 mm with Trichophyton rubrum (50 µg/ml); 17.91±0.24 mm with Trichophyton rubrum (100 µg/ml). Also, the Zone of inhibition came out at 15.78±0.44 mm with P. aeruginosa (50 µg/ml); 17.89±0.42 mm in the assay with P. aeruginosa (100 µg/ml); 14.39±0.34 mm in the assay with S. pneumonie (50 µg/ml); 16.44±0.11 mm with S. pneumonie (100 µg/ml); 15.19±0.08 mm in the assay on S. aureus (50 µg/ml); 17.67±0.78 mm in the assay with S. aureus (100 µg/ml). Further, the IC50 (in general, the concentration that inhibits the measured activity by half) is 16 ± 0.21 µM in assay [1], 20.1 ± 0.18 µM in assay [2] and above 40 µM in assay [3]. Moreover, in [4], the Total antioxidant capacity is reported as 07.02 ± 0.08 μg ascorbic acid equivalents/ml.

`O=C1O[C@H]([C@@H](O)CO)C(O)=C1O` [vitamin C, ascorbic acid, reference compound] had an IC50 in [5] of 98.7 ± 1.5 µM.
